The text below walks through data of US11767320B2, “Bicyclic dione compounds as inhibitors of KRAS” (INCYTE CORPORATION, priority 2020, dated 2023).

pIC50: −log10 of the molar value. A value given as a limit tells only on which side of the number the result lay.

The target of experiment [1] is KRAS G12C (Homo sapiens, UniProt P01116, G12C). As to the kind of experiment: GDP-GTP exchange assay (fluorescence based guanine nucleotide exchange, bodipy-GDP for GppNHp, SOS1). The format is biochemical. The note with it: bodipy-loaded KRAS G12C, 2 hours pre-incubation with inhibitor, read-out: G12C_exchange (KRAS_G12C exchange assay IC50). How it is done:
The inhibitor potency of the exemplified compounds was determined in a fluorescence based guanine nucleotide exchange assay, which measures the exchange of bodipy-GDP (fluorescently labeled GDP) for GppNHp (Non-hydrolyzable GTP analog) to generate the active state of KRAS in the presence of SOS1 (guanine nucleotide exchange factor). Inhibitors were serially diluted in DMSO and a volume of 0.1 μL was transferred to the wells of a black low volume 384-well plate. 5 μL/well volume of bodipy-loaded KRAS G12C diluted to 5 nM in assay buffer (25 mM Hepes pH 7.5, 50 mM NaCl, 10 mM MgCl2 and 0.01% Brij-35) was added to the plate and pre-incubated with inhibitor for 2 hours at ambient temperature. Appropriate controls (enzyme with no inhibitor or with a G12C inhibitor (AMG-510)) were included on the plate. The exchange was initiated by the addition of a 5 μL/well volume containing 1 mM GppNHp and 300 nM SOS1 in assay buffer. The 10 μL/well reaction concentration of the bodipy-loaded KRAS G12C, GppNHp, and SOS1 were 5-25 nM, 500 uM, and 150 nM, respectively. The reaction plates were incubated at ambient temperature for 2 hours, a time estimated for complete GDP-GTP exchange in the absence of inhibitor. For the KRAS G12D and G12V mutants, similar guanine nucleotide exchange assays were used with 2.5 nM as final concentration for the bodipy loaded KRAS proteins and with 4 hours and 3 hours incubation after adding GppNHp-SOS1 mixture for G12D and G12V, respectively. A cyclic peptide described to selectively bind G12D mutant (Sakamoto et al., BBRC 484.3 (2017), 605-611) or internal compounds with confirmed binding were used as positive controls in the assay plates. Fluorescence intensities were measured on a PheraStar plate reader instrument (BMG Labtech) with excitation at 485 nm and emission at 520 nm.
Either GraphPad prism or XLfit was used to analyze the data. The IC50 values were derived by fitting the data to a four parameter logistic equation producing a sigmoidal dose-response curve with a variable Hill coefficient. Prism equation: Y=Bottom+(Top−Bottom)/(1+10^((Log IC50−X)*Hill slope)); XLfit equation: Y=(A+((B−A)/(1+((X/C)^D)))) where X is the logarithm of inhibitor concentration and Y is the response.

Experiment [2] relates to MIA PaCa-2 (KRAS G12C) cells. As to the kind of experiment: Cellular pERK HTRF assay. Particulars: Homo sapiens; MIA PaCa-2 cells, 4 hours, phospho-ERK 1/2 HTRF; read-out: G12C_pERK (KRAS_G12C pERK assay IC50). The format is cell-based. As to the method:
MIA PaCa-2 (KRAS G12C; ATCC® CRL-1420), A427 (KRAS G12D; ATCC® HTB53), HPAF-II (KRAS G12D; ATCC® CRL-1997) and NCI-H838 (KRAS WT; ATCC® CRL-5844) cells are purchased from ATCC and maintained in RPMI 1640 media supplemented with 10% FBS (Gibco/Life Technologies). The cells are plated at 5000 cells per well (8 uL) into Greiner 384-well low volume, flat-bottom, tissue culture treated white plates and incubated overnight at 37° C. 5% CO2. The next morning, test compound stock solutions are diluted in media at 3× the final concentration, and 4 uL are added to the cells. The plate is mixed by gentle rotation for 30 seconds (250 rpm) at room temperature. The cells are incubated with the KRAS G12C and G12D compounds for 4 hours or 2 hours respectively at 37° C., 5% CO2.
4 uL of 4× lysis buffer with blocking reagent (1:25) (Cisbio) are added to each well and plates are rotated gently (300 rpm) for 30 minutes at room temperature. 4 uL per well of Cisbio anti Phospho-ERK 1/2 d2 is mixed with anti Phospho-ERK 1/2 Cryptate (1:1) are added to each well, mixed by rotation and incubated overnight in the dark at room temperature. Plates are read on the Pherastar plate reader at 665 nm and 620 nm wavelengths. IC50 determination is performed by fitting the curve of inhibitor percent inhibition versus the log of the inhibitor concentration using the GraphPad Prism 7 software.

Sequence of KRAS G12C (P01116 1-188 isoform P01116-2 G12C): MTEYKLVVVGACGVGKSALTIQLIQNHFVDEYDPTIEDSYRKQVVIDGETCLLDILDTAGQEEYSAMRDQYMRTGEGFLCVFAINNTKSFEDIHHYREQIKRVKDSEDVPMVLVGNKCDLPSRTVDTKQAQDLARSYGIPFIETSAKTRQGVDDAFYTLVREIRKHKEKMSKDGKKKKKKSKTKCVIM

`C=CC(=O)N1CC(F)(Cn2c(=O)c(=O)n(-c3c(C(C)C)cccc3C(C)C)c3nc(-c4c(O)ccc(F)c4F)c(Cl)cc32)C1` [Example 16, 1-((1-acryloyl-3-fluoroazetidin-3-yl)methyl)-7-chloro-6-(2,3-difluoro-6-hydroxyphenyl)-4-(2,6-diisopropylphenyl)-1,4-dihydropyrido[2,3-b]pyrazine-2,3-dione]: the pIC50 in experiment [1] and in experiment [2] was at least 7.00 throughout.
As for `C=CC(=O)N1CC(F)(Cn2c(=O)c(=O)n(-c3c(C)ccnc3C(C)C)c3nc(-c4ccc(C)cc4F)c(Cl)cc32)C1` [Example 33, 1-((1-acryloyl-3-fluoroazetidin-3-yl)methyl)-7-chloro-6-(2-fluoro-4-methylphenyl)-4-(2-isopropyl-4-methylpyridin-3-yl)-1,4-dihydropyrido[2,3-b]pyrazine-2,3-dione], the pIC50 in experiment [1] and in experiment [2] was at least 7.00 throughout.
Consider `C=CC(=O)N1CC(F)(Cn2c(=O)c(=O)n(-c3c(C)ccnc3C(C)C)c3nc(-c4c(F)ccc(F)c4O)c(Cl)cc32)C1` [Example 22, 1-((1-acryloyl-3-fluoroazetidin-3-yl)methyl)-7-chloro-6-(3,6-difluoro-2-hydroxyphenyl)-4-(2-isopropyl-4-methylpyridin-3-yl)-1,4-dihydropyrido[2,3-b]pyrazine-2,3-dione], for which the pIC50 in experiment [1] and in experiment [2] was at least 7.00 in each case.
Take `C=CC(=O)N1CC(F)(Cn2c(=O)c(=O)n(-c3c(C)ccnc3C(C)C)c3nc(-c4c(F)ccc(C)c4O)c(Cl)cc32)C1` [Example 21, 1-((1-acryloyl-3-fluoroazetidin-3-yl)methyl)-7-chloro-6-(6-fluoro-2-hydroxy-3-methylphenyl)-4-(2-isopropyl-4-methylpyridin-3-yl)-1,4-dihydropyrido[2,3-b]pyrazine-2,3-dione]: the pIC50 in experiment [1] and in experiment [2] was at least 7.00 each time.
In the case of `[2H]C([2H])(n1c(=O)c(=O)n(-c2c(C)ccnc2C(C)C)c2nc(-c3cccc(Cl)c3Cl)c(Cl)cc21)C1(F)CN(C(=O)C=C)C1` [Example 51, 1-((1-acryloyl-3-fluoroazetidin-3-yl)methyl-d2)-7-chloro-6-(2,3-dichlorophenyl)-4-(2-isopropyl-4-methylpyridin-3-yl)-1,4-dihydropyrido[2,3-b]pyrazine-2,3-dione], the pIC50 in experiment [1] and in experiment [2] was at least 7.00 each time.
For `C=CC(=O)N1CC(F)(Cn2c(=O)c(=O)n(-c3c(C)ccnc3C(C)C)c3nc(-c4c(O)cc(C)cc4F)c(Cl)cc32)C1` [Example 20, 1-((1-acryloyl-3-fluoroazetidin-3-yl)methyl)-7-chloro-6-(2-fluoro-6-hydroxy-4-methylphenyl)-4-(2-isopropyl-4-methylpyridin-3-yl)-1,4-dihydropyrido[2,3-b]pyrazine-2,3-dione], the pIC50 in experiment [1] and in experiment [2] was at least 7.00 each time.
Consider `[2H]C([2H])(n1c(=O)c(=O)n(-c2c(C)ccnc2C(C)C)c2nc(-c3c(F)ccc(C)c3O)c(Cl)cc21)C1(F)CN(C(=O)C=C)C1` [Example 47, 1-((1-acryloyl-3-fluoroazetidin-3-yl)methyl-d2)-7-chloro-6-(6-fluoro-2-hydroxy-3-methylphenyl)-4-(2-isopropyl-4-methylpyridin-3-yl)-1,4-dihydropyrido[2,3-b]pyrazine-2,3-dione], for which the pIC50 in experiment [1] and in experiment [2] was at least 7.00 throughout.
With `C=CC(=O)N1CC(Cn2c(=O)c(=O)n(-c3c(C)ccnc3C(C)C)c3nc(-c4c(N)cccc4F)c(Cl)cc32)(OC)C1` [Example 40, 1-((1-acryloyl-3-methoxyazetidin-3-yl)methyl)-6-(2-amino-6-fluorophenyl)-7-chloro-4-(2-isopropyl-4-methylpyridin-3-yl)-1,4-dihydropyrido[2,3-b]pyrazine-2,3-dione], the pIC50 in experiment [1] and in experiment [2] was 6.00 to 7.00 each time.
In the case of `C=CC(=O)N1CC(F)(Cn2c(=O)c(=O)n(-c3c(C)ccnc3C(C)C)c3nc(-c4c(O)ccc(F)c4F)c(Cl)cc32)C1` [Example 23, 1-((1-acryloyl-3-fluoroazetidin-3-yl)methyl)-7-chloro-6-(2,3-difluoro-6-hydroxyphenyl)-4-(2-isopropyl-4-methylpyridin-3-yl)-1,4-dihydropyrido[2,3-b]pyrazine-2,3-dione], the pIC50 in experiment [1] and in experiment [2] was at least 7.00 in each case.
As to `C=CC(=O)N1CC(F)(Cn2c(=O)c(=O)n(-c3c(C(C)C)cccc3C(C)C)c3nc(-c4c(N)cccc4F)c(Cl)cc32)C1` [Example 15, 1-((1-acryloyl-3-fluoroazetidin-3-yl)methyl)-6-(2-amino-6-fluorophenyl)-7-chloro-4-(2,6-diisopropylphenyl)-1,4-dihydropyrido[2,3-b]pyrazine-2,3-dione], the pIC50 in experiment [1] and in experiment [2] was at least 7.00 in each case.
With `C=CC(=O)N1CC(Cn2c(=O)c(=O)n(-c3c(C(C)C)cccc3C(C)C)c3nc(-c4cccc(F)c4F)c(Cl)cc32)C1` [Example 5, 1-((1-acryloylazetidin-3-yl)methyl)-7-chloro-4-(2,6-diisopropylphenyl)-6-(2,3-difluorophenyl)-1,4-dihydropyrido[2,3-b]pyrazine-2,3-dione], the pIC50 – broadly, −log10 of the IC50, conventionally taken in molar units – in experiment [1] is at least 7.00; in experiment [2], 6.00 to 7.00.
For `C=CC(=O)N1CC(F)(Cn2c(=O)c(=O)n(-c3c(C)ccnc3C(C)C)c3nc(-c4c(O)cccc4C(F)(F)F)c(Cl)cc32)C1` [Example 25, 1-((1-acryloyl-3-fluoroazetidin-3-yl)methyl)-7-chloro-6-(2-hydroxy-6-(trifluoromethyl)phenyl)-4-(2-isopropyl-4-methylpyridin-3-yl)-1,4-dihydropyrido[2,3-b]pyrazine-2,3-dione], the pIC50 in experiment [1] and in experiment [2] was at least 7.00 each time.
`C=CC(=O)N1CC(F)(Cn2c(=O)c(=O)n(-c3c(C)ccnc3C(C)C)c3nc(-c4cccc5cn[nH]c45)c(Cl)cc32)C1` [Example 29, 1-((1-acryloyl-3-fluoroazetidin-3-yl)methyl)-7-chloro-6-(1H-indazol-7-yl)-4-(2-isopropyl-4-methylpyridin-3-yl)-1,4-dihydropyrido[2,3-b]pyrazine-2,3-dione]: the pIC50 in experiment [1] was 6.00 to 7.00.
Turning to `[2H]C([2H])(n1c(=O)c(=O)n(-c2c(C)ccnc2C(C)C)c2nc(-c3cccc4ccccc34)c(Cl)cc21)C1(F)CN(C(=O)C=C)C1` [Example 53, 1-((1-acryloyl-3-fluoroazetidin-3-yl)methyl-d2)-7-chloro-4-(2-isopropyl-4-methylpyridin-3-yl)-6-(naphthalen-1-yl)-1,4-dihydropyrido[2,3-b]pyrazine-2,3-dione], in experiment [1], the pIC50 was at least 7.00.
Same read-out and setting: as for `C=CC(=O)N1CC(F)(Cn2c(=O)c(=O)n(-c3c(C)ccnc3C(C)C)c3nc(-c4cccc5nn[nH]c45)c(Cl)cc32)C1` [Example 30, 1-((1-acryloyl-3-fluoroazetidin-3-yl)methyl)-6-(1H-benzo[d][1,2,3]triazol-7-yl)-7-chloro-4-(2-isopropyl-4-methylpyridin-3-yl)-1,4-dihydropyrido[2,3-b]pyrazine-2,3-dione], the figure is 6.00 to 7.00; as for `C=CC(=O)N1CC(O)(Cn2c(=O)c(=O)n(-c3c(C)ccnc3C(C)C)c3nc(-c4c(F)ccc(F)c4O)c(Cl)cc32)C1` [Example 44, 1-((1-acryloyl-3-hydroxyazetidin-3-yl)methyl)-7-chloro-6-(3,6-difluoro-2-hydroxyphenyl)-4-(2-isopropyl-4-methylpyridin-3-yl)-1,4-dihydropyrido[2,3-b]pyrazine-2,3-dione], 6.00 to 7.00.
